{"source": "patent US7189761B2", "about": "“Nitric oxide donor composition and method for treatment of anal disorders” (priority 1994, dated 2007)", "key": {"[1]": {"test_system": "smooth muscle strips of the internal anal sphincter (IAS)", "details": "cited from earlier work"}, "[2]": {"test_system": "internal anal sphincter (IAS)", "details": "cited from earlier work; for effect on the decrease in IAS resting pressures in response to the rectoanal reflex: reflex mimicked by rectal balloon distention; for reversal of the L-NNA suppression of rectoanal reflex-induced IAS relaxation: in vivo"}, "[3]": {"test_system": "human internal anal sphincter muscle strips", "details": "cited from earlier work; for effect on relaxations produced by transmural field stimulation: in the presence of atropine and guanethidine"}, "anal fissure": {"test_system": "anal fissure", "experiment": "Case reports: topical ointment in patients with anal fissure", "type": "in vivo, human", "details": "person, superficial posterior midline anal fissure, patient history", "procedure": "The patient rated their pre-treatment pain 7/10. The patient applied approximately 500 mg of the ointment as prepared in Example 1, three times daily and after bowel movements. The patient reported that their pain was gone following initial application.\nThe patient rated their pre-treatment pain 7/10. The patient applied approximately 500 mg of the ointment as prepared in Example 1, three times daily and after bowel movements. […] After three weeks of treatment, the fissure was healed, and the pain was gone.\nThey had previously failed a course of hydrocortisone therapy. Pre-treatment pain was rated 9/10. The patient was treated with approximately 500 mg of the preparation of Example 1, three times daily and after bowel movements. After one week of treatment, the fissure was still present, and pain was rated 8/10. The patient was then treated with approximately 500 mg of the preparation of Example 2, three times daily and after bowel movements. Following one week of therapy with the ointment as of Example 2, the patient reported no pain and no bleeding.\nPre-treatment pain was rated 4/10. The patient was treated with the ointment as of Example 2, approximately 500 mg three times daily and after bowel movements. Following one week of therapy, the patient reported that their pain had diminished, and it was rated 2/10. […]"}, "[4]": {"details": "response to lower frequencies of EFS and DMPP"}, "[5]": {"details": "isolated IAS smooth muscle strips"}}, "note": "Read-outs that look alike come from different tables or passages of the source. Ends that are not written are not given here.", "data": [{"molecule": "NC(=NCCC[C@@H](N)C(=O)O)N[N+](=O)[O-]", "note": "[D-NNA]", "values": [{"measurement": "effect of pretreatment on NO release and fall in IAS resting tension", "setting": "[1]; [4]", "value": "no significant effect"}, {"measurement": "effect on the decrease in IAS resting pressures in response to the rectoanal reflex", "setting": "[2]", "value": "no effect"}]}, {"molecule": "N=C(N)NCCC[C@@H](N)C(=O)O", "note": "[D-arginine]", "values": [{"measurement": "reversal of the loss of NO release and IAS relaxation", "setting": "[1]", "value": "no significant effect"}, {"measurement": "reversal of the inhibitory effects of NO synthase antagonists", "setting": "[3]", "value": "did not reverse"}, {"measurement": "reversal of the L-NNA suppression of rectoanal reflex-induced IAS relaxation", "setting": "[2]", "value": "failed to reverse"}]}, {"molecule": "C[N+]1(C)CCN(c2ccccc2)CC1", "note": "[DMPP, 1,1-dimethyl-4-phenylpiperazinium]", "values": [{"measurement": "IAS relaxation and release of NO", "setting": "[1]", "value": "caused IAS relaxation with an accompanying release of NO"}]}, {"molecule": "N=C(NCCC[C@H](N)C(=O)O)N[N+](=O)[O-]", "note": "[L-NNA, L-NG-nitro-arginine]", "values": [{"measurement": "effect on NO release caused by vasoactive intestinal polypeptide", "setting": "[1]; IAS smooth muscle strips", "value": "abolished"}, {"measurement": "effect of pretreatment on NO release and fall in IAS resting tension", "setting": "[1]; [4]", "value": "abolished"}, {"measurement": "effect on relaxations produced by transmural field stimulation", "setting": "[3]", "value": "completely"}, {"measurement": "effect on the decrease in IAS resting pressures in response to the rectoanal reflex", "setting": "[2]", "value": "significant dose-dependent suppression"}]}, {"molecule": "N=C(N)NCCC[C@H](N)C(=O)O", "note": "[L-arginine]", "values": [{"measurement": "reversal of the loss of NO release and IAS relaxation", "setting": "[1]", "value": "reversed to control levels"}, {"measurement": "reversal of the inhibitory effects of NO synthase antagonists", "setting": "[3]", "value": "reversed"}, {"measurement": "reversal of the L-NNA suppression of rectoanal reflex-induced IAS relaxation", "setting": "[2]", "value": "completely reversed"}]}, {"molecule": "C[C@]12CCC(=O)C=C1CC[C@@H]1[C@@H]2[C@@H](O)C[C@@]2(C)[C@H]1CC[C@]2(O)C(=O)CO", "note": "[hydrocortisone, 11-17-21-trihydroxypregn-4-ene-3,20-dione]", "values": [{"measurement": "outcome of previous course of therapy", "setting": "anal fissure", "value": "failed"}]}, {"molecule": "CC(C)NCC(O)c1ccc(O)c(O)c1", "note": "(centres unmarked) [isoproterenol]", "values": [{"measurement": "IAS relaxation and release of NO", "setting": "[1]; [5]", "value": "caused IAS relaxation without any increase in NO release"}, {"measurement": "effect on the resting pressure of the IAS", "setting": "[2]; not modified by L-NNA", "value": "decrease"}]}, {"molecule": "NC1=N[C@H](O)[C@H]2[C@H]3O[C@]4(O)O[C@@H]([C@@H](O)[C@@]2(N1)[C@@H]4O)[C@]3(O)CO", "note": "[tetrodotoxin]", "values": [{"measurement": "effect of pretreatment on NO release and fall in IAS resting tension", "setting": "[1]", "value": "abolished"}]}, {"molecule": "atrial natriuretic factor", "values": [{"measurement": "IAS relaxation and release of NO", "setting": "[1]; [5]", "value": "caused IAS relaxation without any increase in NO release"}]}, {"molecule": "oxyhaemoglobin", "values": [{"measurement": "effect on relaxations produced by transmural field stimulation", "setting": "[3]", "value": "abolished"}]}, {"molecule": "vasoactive intestinal polypeptide: vasoactive intestinal polypeptide (HSDAVFTDNYTRLRKQMAVKKYLNSILN; ends and bridges not checked; UniProt P01282 125-152, looked up)", "values": [{"measurement": "IAS relaxation and release of NO", "setting": "[1]; [5]", "value": "release of NO"}]}]}
